Test results: US4684664A, “Derivatives of β-(4-isocyano-1,2,3,4-diepoxycyclopentyl) acrylic acid” (Kureha Kagaku Kogyo Kabushiki Kaisha, priority 1984, dated 1987)
Values after ≈ are worked out from the molar mass of the structure shown.

Tests used:
Type in all cases: cell-based
[1] = system: Staphylococcus aureus FDA 209PJc-1; assay: Antibacterial activity, agar-dilution MIC, organism No. 1; details: Staphylococcus aureus, FDA209PJC1; Organism No. 1, bouillon-agar; read-out: Minimum Inhibitory Concentration
Procedure, shortened: (§1)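 MICs were determined by agar dilution on bouillon-agar medium. The value is the minimum concentration of specimen inhibiting growth, expressed as μg/ml of culture medium.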

[2] = system: Staphylococcus aureus Terajima; assay: Antibacterial activity, agar-dilution MIC, organism No. 2; details: Staphylococcus aureus; Organism No. 2, bouillon-agar; read-out: Minimum Inhibitory Concentration
Procedure, shortened: as §1

[3] = system: Staphylococcus aureus MS 353; assay: Antibacterial activity, agar-dilution MIC, organism No. 3; details: Staphylococcus aureus, MS353; Organism No. 3, bouillon-agar; read-out: Minimum Inhibitory Concentration
Procedure, shortened: as §1

[4] = system: Streptococcus pyogenes Cook; assay: Antibacterial activity, agar-dilution MIC, organism No. 4; details: Streptococcus pyogenes; Organism No. 4, bouillon-agar; read-out: Minimum Inhibitory Concentration
Procedure, shortened: as §1

[5] = system: Escherichia coli NIHJ-JC-2; assay: Antibacterial activity, agar-dilution MIC, organism No. 5; details: Escherichia coli, NIHJJC2; Organism No. 5, bouillon-agar; read-out: Minimum Inhibitory Concentration
Procedure, shortened: as §1

[6] = system: Escherichia coli K12 C600 IAM 1264; assay: Antibacterial activity, agar-dilution MIC, organism No. 6; details: Escherichia coli, IAM1264; Organism No. 6, bouillon-agar; read-out: Minimum Inhibitory Concentration
Procedure, shortened: as §1

[7] = system: Klebsiella pneumoniae PCI-602; assay: Antibacterial activity, agar-dilution MIC, organism No. 7; details: Klebsiella pneumoniae, PCI602; Organism No. 7, bouillon-agar; read-out: Minimum Inhibitory Concentration
Procedure, shortened: as §1

[8] = system: Salmonella typhimurium IID 971; assay: Antibacterial activity, agar-dilution MIC, organism No. 8; details: Salmonella enterica; Organism No. 8, bouillon-agar; read-out: Minimum Inhibitory Concentration
Procedure, shortened: as §1

Salmonella typhi 901 = assay: Antibacterial activity, agar-dilution MIC, organism No. 9; details: Salmonella enterica, TYPHI, read-out: Minimum Inhibitory Concentration
Procedure, shortened: as §1

[9] = system: Salmonella paratyphi-A 1015; assay: Antibacterial activity, agar-dilution MIC, organism No. 10; details: Salmonella enterica, PARATYPHI, read-out: Minimum Inhibitory Concentration
Procedure, shortened: as §1

[10] = system: Salmonella shottmuelleri 8006; assay: Antibacterial activity, agar-dilution MIC, organism No. 11; details: Salmonella, 8006; Organism No. 11, bouillon-agar; read-out: Minimum Inhibitory Concentration
Procedure, shortened: as §1

[11] = system: Salmonella enteritidis G 14; assay: Antibacterial activity, agar-dilution MIC, organism No. 12; details: Salmonella enterica, ENTERITIDIS; Organism No. 12, bouillon-agar; read-out: Minimum Inhibitory Concentration
Procedure, shortened: as §1

[12] = system: Serratia marcescens IAM 1184; assay: Antibacterial activity, agar-dilution MIC, organism No. 13; details: Serratia marcescens, IAM1184; Organism No. 13, bouillon-agar; read-out: Minimum Inhibitory Concentration
Procedure, shortened: as §1

[13] = system: Bacillus subtilis ATCC 6633; assay: Antibacterial activity, agar-dilution MIC, organism No. 14; details: Bacillus subtilis, ATCC6633; Organism No. 14, bouillon-agar; read-out: Minimum Inhibitory Concentration
Procedure, shortened: as §1

[14] = system: Pseudomonas aeruginosa IFO 3445; assay: Antibacterial activity, agar-dilution MIC, organism No. 15; details: Pseudomonas aeruginosa, IFO3445; Organism No. 15, bouillon-agar; read-out: Minimum Inhibitory Concentration
Procedure, shortened: as §1

[15] = system: Pseudomonas aeruginosa NCTC 10490; assay: Antibacterial activity, agar-dilution MIC, organism No. 16; details: Pseudomonas aeruginosa, NCTC10490; Organism No. 16, bouillon-agar; read-out: Minimum Inhibitory Concentration
Procedure, shortened: as §1

[16] = system: Pseudomonas aeruginosa PAO 1; assay: Antibacterial activity, agar-dilution MIC, organism No. 17; details: Pseudomonas aeruginosa, PAO1; Organism No. 17, bouillon-agar; read-out: Minimum Inhibitory Concentration
Procedure, shortened: as §1

[17] = system: Proteus morganii IFO 3848; assay: Antibacterial activity, agar-dilution MIC, organism No. 18; details: Morganella morganii, IFO3848; Organism No. 18, bouillon-agar; read-out: Minimum Inhibitory Concentration
Procedure, shortened: as §1

[18] = system: Proteus mirabilis IFO 3849; assay: Antibacterial activity, agar-dilution MIC, organism No. 19; details: Proteus mirabilis, IFO3849; Organism No. 19, bouillon-agar; read-out: Minimum Inhibitory Concentration
Procedure, shortened: as §1

Proteus vulgaris OX-19 = assay: Antibacterial activity, agar-dilution MIC, organism No. 20; details: Proteus vulgaris, OX19; Organism No. 20, bouillon-agar; read-out: Minimum Inhibitory Concentration
Procedure, shortened: as §1

Proteus vulgaris HX-19 = assay: Antibacterial activity, agar-dilution MIC, organism No. 21; details: Proteus vulgaris, HX19; Organism No. 21, bouillon-agar; read-out: Minimum Inhibitory Concentration
Procedure, shortened: as §1

[19] = system: Proteus rettgeri IFO 3850; assay: Antibacterial activity, agar-dilution MIC, organism No. 22; details: Providencia rettgeri, IFO3850; Organism No. 22, bouillon-agar; read-out: Minimum Inhibitory Concentration
Procedure, shortened: as §1

[20] = system: Enterobacter aerogenes ATCC 13048; assay: Antibacterial activity, agar-dilution MIC, organism No. 23; details: Klebsiella aerogenes, ATCC13048; Organism No. 23, bouillon-agar; read-out: Minimum Inhibitory Concentration
Procedure, shortened: as §1

Enterobacter cloacae 963 = assay: Antibacterial activity, agar-dilution MIC, organism No. 24; details: Enterobacter cloacae, 963; Organism No. 24, bouillon-agar; read-out: Minimum Inhibitory Concentration
Procedure, shortened: as §1

[21] = system: Micrococcus luteus ATCC 9341; assay: Antibacterial activity, agar-dilution MIC, organism No. 25; details: Micrococcus luteus, ATCC9341; Organism No. 25, bouillon-agar; read-out: Minimum Inhibitory Concentration
Procedure, shortened: as §1

[22] = system: Streptococcus pyogenes IFO 3340; assay: Antibacterial activity, agar-dilution MIC, organism No. 26; details: Streptococcus pyogenes, IFO3340; Organism No. 26, bouillon-agar; read-out: Minimum Inhibitory Concentration
Procedure, shortened: as §1

[23] = system: Streptococcus faecium IFO 3826; assay: Antibacterial activity, agar-dilution MIC, organism No. 27; details: Enterococcus faecium, IFO3826; Organism No. 27, bouillon-agar; read-out: Minimum Inhibitory Concentration
Procedure, shortened: as §1

[24] = system: Mycoplasma pneumoniae IID817; assay: Antimycoplasmal activity, MIC by phenol red colour change, organism No. 28; details: Mycoplasma, IID817; Organism No. 28, PPLO broth + 1% glucose, 37° C.; read-out: Minimum Inhibitory Concentration (MIC)
Experimental: Mycoplasma pneumoniae IID817 was used as the test microorganism in a culture medium prepared by adding 1% of glucose to "PPLO broth (manufactured by Difco Co.) liquid culture medium" at 37° C. with phenol red as an indicator, thereby culturing the test microorganism.

[25] = system: Candida albicans IAM 4905; assay: Antifungal activity, agar-dilution MIC, organism No. 29; details: Candida albicans, IAM4905; Organism No. 29, bouillon-agar; read-out: Minimum Inhibitory Concentration
Procedure, shortened: as §1

[26] = system: Aspergillus niger IFO 6342; assay: Antifungal activity, agar-dilution MIC, organism No. 30; details: Aspergillus niger, IFO6342; Organism No. 30, bouillon-agar; read-out: Minimum Inhibitory Concentration
Procedure, shortened: as §1

| SMILES | MIC [1] | MIC [2] | MIC [3] | MIC [4] | MIC [5] | MIC [6] | MIC [7] | MIC [8] | MIC (Salmonella typhi 901) | MIC [9] | MIC [10] | MIC [11] | MIC [12] | MIC [13] | MIC [14] | MIC [15] | MIC [16] | MIC [17] | MIC [18] | MIC (Proteus vulgaris OX-19) | also measured |
| --- | --- | --- | --- | --- | --- | --- | --- | --- | --- | --- | --- | --- | --- | --- | --- | --- | --- | --- | --- | --- | --- |
| [C-]#[N+]C12CC3(/C=C/C(=O)OCC(=O)c4ccccc4)OC3C1O2 (stereo not drawn) [Compound No. 3] | 0.2 µg/mL (≈ 0.642 µM) | 3.13 µg/mL (≈ 10.1 µM) | 0.05 µg/mL (≈ 0.161 µM) | 6.25 µg/mL (≈ 20.1 µM) | 50 µg/mL (≈ 161 µM) | 50 µg/mL (≈ 161 µM) | 6.25 µg/mL (≈ 20.1 µM) | 50 µg/mL (≈ 161 µM) | 12.5 µg/mL (≈ 40.2 µM) | 6.25 µg/mL (≈ 20.1 µM) | 6.25 µg/mL (≈ 20.1 µM) | 12.5 µg/mL (≈ 40.2 µM) | > 100 µg/mL | 50 µg/mL (≈ 161 µM) | > 100 µg/mL | > 100 µg/mL | > 100 µg/mL | 3.13 µg/mL (≈ 10.1 µM) | 50 µg/mL (≈ 161 µM) | 1.56 µg/mL (≈ 5.01 µM) | MIC (Proteus vulgaris HX-19): 0.05 µg/mL (≈ 0.161 µM); MIC [19]: 50 µg/mL (≈ 161 µM); MIC [20]: > 100 µg/mL; MIC (Enterobacter cloacae 963): > 100 µg/mL; MIC [21]: 0.2 µg/mL (≈ 0.642 µM); MIC [22]: 6.25 µg/mL (≈ 20.1 µM); MIC [23]: 3.13 µg/mL (≈ 10.1 µM); MIC [24]: 0.05 µg/mL; MIC [25]: 0.8 µg/mL (≈ 2.57 µM); MIC [26]: 3.13 µg/mL (≈ 10.1 µM) |
| [C-]#[N+]C12CC3(/C=C/C(=O)NOC)OC3C1O2 (stereo not drawn) [compound 81] | 25 µg/mL (≈ 113 µM) | 25 µg/mL (≈ 113 µM) | 12.5 µg/mL (≈ 56.3 µM) | 25 µg/mL (≈ 113 µM) | 12.5 µg/mL (≈ 56.3 µM) | 12.5 µg/mL (≈ 56.3 µM) | 200 µg/mL (≈ 900 µM) | 12.5 µg/mL (≈ 56.3 µM) | 6.25 µg/mL (≈ 28.1 µM) | 6.25 µg/mL (≈ 28.1 µM) | 12.5 µg/mL (≈ 56.3 µM) | 6.25 µg/mL (≈ 28.1 µM) | 200 µg/mL (≈ 900 µM) | 50 µg/mL (≈ 225 µM) | 200 µg/mL (≈ 900 µM) | 200 µg/mL (≈ 900 µM) | > 200 µg/mL | 25 µg/mL (≈ 113 µM) | 100 µg/mL (≈ 450 µM) | 50 µg/mL (≈ 225 µM) | MIC (Proteus vulgaris HX-19): 6.25 µg/mL (≈ 28.1 µM); MIC [19]: 100 µg/mL (≈ 450 µM); MIC [20]: > 200 µg/mL; MIC (Enterobacter cloacae 963): > 200 µg/mL; MIC [21]: 100 µg/mL (≈ 450 µM); MIC [22]: 6.25 µg/mL (≈ 28.1 µM); MIC [23]: 12.5 µg/mL (≈ 56.3 µM); MIC [24]: < 0.2 µg/mL; MIC [25]: 12.5 µg/mL (≈ 56.3 µM); MIC [26]: 6.25 µg/mL (≈ 28.1 µM) |
